In assay [1] the target is Cyclin-dependent kinase 8 (Homo sapiens) (UniProt P49336). Description: Inhibition of CDK8 in human NCI-H929 cells at 10 uM by mass spectroscopic analysis relative to control. It counts as cell-based.
The target of assay [2] is Calcium/calmodulin-dependent protein kinase kinase 2 (Homo sapiens) (UniProt Q96RR4). Description: Inhibition of CAMKK2 in human NCI-H929 cells at 10 uM by mass spectroscopic analysis relative to control. It counts as cell-based.
Assay [3] addresses Tyrosine-protein kinase ABL1 (Homo sapiens) (UniProt P00519). The experiment in a line: Inhibition of ABL in human NCI-H929 cells at 10 uM by mass spectroscopic analysis relative to control. It counts as cell-based.
The target in assay [4] is RAC-beta serine/threonine-protein kinase (Homo sapiens) (UniProt P31751). Description: Inhibition of AKT2 in human NCI-H929 cells at 10 uM by mass spectroscopic analysis relative to control. The class given is cell-based.
Assay [5] deals with T1, NUAK family SNF1-like kinase 1 (Homo sapiens) (UniProt O60285).
T1 sequence (whole entry): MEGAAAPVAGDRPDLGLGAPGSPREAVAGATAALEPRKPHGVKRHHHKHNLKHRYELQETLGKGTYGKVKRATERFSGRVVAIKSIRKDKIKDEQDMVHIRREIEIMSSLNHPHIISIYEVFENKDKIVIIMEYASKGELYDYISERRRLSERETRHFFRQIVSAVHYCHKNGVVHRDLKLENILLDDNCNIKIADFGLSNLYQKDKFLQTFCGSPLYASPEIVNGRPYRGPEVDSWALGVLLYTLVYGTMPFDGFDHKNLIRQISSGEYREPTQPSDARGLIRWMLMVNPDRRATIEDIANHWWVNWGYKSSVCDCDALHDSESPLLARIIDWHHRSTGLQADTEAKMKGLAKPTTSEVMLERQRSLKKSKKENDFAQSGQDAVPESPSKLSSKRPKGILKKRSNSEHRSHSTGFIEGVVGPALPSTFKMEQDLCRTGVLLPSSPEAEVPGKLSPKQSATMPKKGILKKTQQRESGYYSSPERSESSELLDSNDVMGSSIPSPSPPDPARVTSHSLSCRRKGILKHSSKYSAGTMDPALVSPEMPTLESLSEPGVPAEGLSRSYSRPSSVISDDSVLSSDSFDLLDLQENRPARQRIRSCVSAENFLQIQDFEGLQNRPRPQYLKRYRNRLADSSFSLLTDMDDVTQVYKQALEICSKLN
Description: Inhibition of NuaK1 in human NCI-H929 cells at 10 uM by mass spectroscopic analysis relative to control. The class given is cell-based.

Assay [6] has as its system MM1.S. The experiment in a line: Upregulation of YAP1 protein level in human MM1.S cells at 1 uM measured after 16 hrs by Western blot analysis. It counts as functional, cell-based.
The target in assay [7] is T2, Inhibitor of nuclear factor kappa-B kinase subunit epsilon (Homo sapiens) (UniProt Q14164).
T2 sequence (whole entry): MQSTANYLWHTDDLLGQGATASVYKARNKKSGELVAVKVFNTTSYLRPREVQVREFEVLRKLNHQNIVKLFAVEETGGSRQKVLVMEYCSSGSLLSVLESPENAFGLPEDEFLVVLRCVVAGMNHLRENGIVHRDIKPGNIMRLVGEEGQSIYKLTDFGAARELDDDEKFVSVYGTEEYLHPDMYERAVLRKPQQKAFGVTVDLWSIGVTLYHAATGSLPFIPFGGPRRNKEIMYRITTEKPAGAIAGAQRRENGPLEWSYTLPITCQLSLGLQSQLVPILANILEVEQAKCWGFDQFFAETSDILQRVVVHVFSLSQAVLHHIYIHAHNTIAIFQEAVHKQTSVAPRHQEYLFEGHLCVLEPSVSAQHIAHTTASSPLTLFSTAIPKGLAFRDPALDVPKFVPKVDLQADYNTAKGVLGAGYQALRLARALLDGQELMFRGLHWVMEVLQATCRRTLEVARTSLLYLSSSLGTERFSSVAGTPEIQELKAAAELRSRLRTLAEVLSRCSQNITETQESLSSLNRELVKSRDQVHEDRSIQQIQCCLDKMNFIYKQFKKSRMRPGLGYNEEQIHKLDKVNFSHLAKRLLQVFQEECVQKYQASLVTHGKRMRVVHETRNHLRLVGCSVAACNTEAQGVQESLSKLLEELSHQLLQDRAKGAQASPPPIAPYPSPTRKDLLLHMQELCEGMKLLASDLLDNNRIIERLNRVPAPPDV
Description: Inhibition of IKKE in human NCI-H929 cells at 10 uM by mass spectroscopic analysis relative to control. The class given is cell-based.

The target in assay [8] is Cyclin-dependent kinase 17 (Homo sapiens) (UniProt Q00537). The experiment in a line: Inhibition of PCTAIRE2 in human NCI-H929 cells at 10 uM by mass spectroscopic analysis relative to control. It counts as cell-based.
The target of assay [9] is T3, Serine/threonine-protein kinase TAO1 (Homo sapiens) (UniProt Q7L7X3).
T3 sequence (whole entry): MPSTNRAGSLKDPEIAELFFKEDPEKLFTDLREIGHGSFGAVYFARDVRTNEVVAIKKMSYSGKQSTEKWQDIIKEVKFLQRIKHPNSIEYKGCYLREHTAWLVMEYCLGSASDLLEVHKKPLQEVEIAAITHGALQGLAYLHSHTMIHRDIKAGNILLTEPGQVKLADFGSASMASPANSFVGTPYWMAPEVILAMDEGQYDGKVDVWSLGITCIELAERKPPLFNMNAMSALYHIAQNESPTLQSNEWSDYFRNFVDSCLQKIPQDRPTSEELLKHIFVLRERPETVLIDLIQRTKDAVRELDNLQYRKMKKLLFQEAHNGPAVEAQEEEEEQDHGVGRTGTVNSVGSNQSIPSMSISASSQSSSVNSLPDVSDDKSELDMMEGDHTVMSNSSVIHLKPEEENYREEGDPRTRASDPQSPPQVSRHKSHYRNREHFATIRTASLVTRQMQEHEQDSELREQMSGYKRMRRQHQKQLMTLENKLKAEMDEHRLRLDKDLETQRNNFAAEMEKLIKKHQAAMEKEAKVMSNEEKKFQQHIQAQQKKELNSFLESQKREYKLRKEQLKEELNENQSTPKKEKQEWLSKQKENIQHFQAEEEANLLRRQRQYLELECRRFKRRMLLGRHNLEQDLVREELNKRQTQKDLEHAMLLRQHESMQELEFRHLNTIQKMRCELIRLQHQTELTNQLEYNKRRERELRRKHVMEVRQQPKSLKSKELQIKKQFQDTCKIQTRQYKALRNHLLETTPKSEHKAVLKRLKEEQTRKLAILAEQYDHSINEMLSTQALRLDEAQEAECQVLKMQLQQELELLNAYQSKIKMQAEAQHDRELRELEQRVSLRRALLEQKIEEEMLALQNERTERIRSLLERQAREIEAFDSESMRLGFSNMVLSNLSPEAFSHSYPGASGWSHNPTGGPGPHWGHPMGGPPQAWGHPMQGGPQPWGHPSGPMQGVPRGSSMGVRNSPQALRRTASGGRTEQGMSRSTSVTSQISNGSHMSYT
The experiment in a line: Inhibition of TAO1 in human NCI-H929 cells at 10 uM by mass spectroscopic analysis relative to control. The class given is cell-based.

In assay [10] the test system is MAP4K2 (Homo sapiens). Description: Inhibition of GCK in human NCI-H929 cells at 10 uM by mass spectroscopic analysis relative to control.

The structures appear in SMILES notation. Active and inactive are the calls of the source. No cut-off for these calls is given here.

RAC-beta serine/threonine-protein kinase (Homo sapiens), sequence (P31751 whole entry): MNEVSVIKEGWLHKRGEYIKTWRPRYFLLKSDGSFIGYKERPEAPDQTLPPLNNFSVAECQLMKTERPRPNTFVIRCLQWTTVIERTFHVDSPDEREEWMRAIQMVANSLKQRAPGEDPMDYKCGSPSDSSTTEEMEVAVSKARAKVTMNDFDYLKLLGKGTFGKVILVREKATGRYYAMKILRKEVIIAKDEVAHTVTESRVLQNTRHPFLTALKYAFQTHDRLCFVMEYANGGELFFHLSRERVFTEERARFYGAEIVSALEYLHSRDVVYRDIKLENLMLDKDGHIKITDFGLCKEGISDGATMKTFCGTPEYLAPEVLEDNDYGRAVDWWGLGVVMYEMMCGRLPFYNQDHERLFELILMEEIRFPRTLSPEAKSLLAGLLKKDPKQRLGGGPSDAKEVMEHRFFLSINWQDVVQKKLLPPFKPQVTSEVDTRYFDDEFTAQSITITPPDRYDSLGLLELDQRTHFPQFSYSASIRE
Cyclin-dependent kinase 8 (Homo sapiens), sequence (P49336 whole entry): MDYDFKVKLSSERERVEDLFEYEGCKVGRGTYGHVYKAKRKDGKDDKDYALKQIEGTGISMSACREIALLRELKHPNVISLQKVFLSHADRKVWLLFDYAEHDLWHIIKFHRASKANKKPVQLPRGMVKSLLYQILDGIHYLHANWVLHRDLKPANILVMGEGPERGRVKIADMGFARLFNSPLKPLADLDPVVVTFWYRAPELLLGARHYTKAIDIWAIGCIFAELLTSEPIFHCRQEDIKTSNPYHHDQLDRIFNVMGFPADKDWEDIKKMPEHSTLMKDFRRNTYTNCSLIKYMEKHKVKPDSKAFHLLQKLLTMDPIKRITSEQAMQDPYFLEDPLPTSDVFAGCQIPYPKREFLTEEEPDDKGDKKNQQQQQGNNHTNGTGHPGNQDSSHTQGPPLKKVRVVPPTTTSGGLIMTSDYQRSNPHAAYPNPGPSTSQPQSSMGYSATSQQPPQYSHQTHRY
Cyclin-dependent kinase 17 (Homo sapiens), sequence (Q00537 whole entry, looked up): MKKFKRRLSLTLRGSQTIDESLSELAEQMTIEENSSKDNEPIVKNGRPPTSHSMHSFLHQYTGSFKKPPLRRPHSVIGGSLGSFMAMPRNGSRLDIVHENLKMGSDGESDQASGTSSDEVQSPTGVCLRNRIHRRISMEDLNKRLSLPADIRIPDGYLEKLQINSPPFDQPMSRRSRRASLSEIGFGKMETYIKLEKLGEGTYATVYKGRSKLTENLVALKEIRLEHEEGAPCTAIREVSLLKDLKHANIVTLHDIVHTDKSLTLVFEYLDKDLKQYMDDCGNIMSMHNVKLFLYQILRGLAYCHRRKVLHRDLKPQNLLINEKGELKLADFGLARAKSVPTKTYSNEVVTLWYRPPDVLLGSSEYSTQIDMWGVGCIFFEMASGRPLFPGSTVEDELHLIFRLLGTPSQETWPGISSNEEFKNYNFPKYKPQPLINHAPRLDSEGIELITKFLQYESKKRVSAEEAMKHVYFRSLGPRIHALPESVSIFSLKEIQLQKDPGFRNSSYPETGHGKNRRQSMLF
Calcium/calmodulin-dependent protein kinase kinase 2 (Homo sapiens), sequence (Q96RR4 2-588 limits assumed): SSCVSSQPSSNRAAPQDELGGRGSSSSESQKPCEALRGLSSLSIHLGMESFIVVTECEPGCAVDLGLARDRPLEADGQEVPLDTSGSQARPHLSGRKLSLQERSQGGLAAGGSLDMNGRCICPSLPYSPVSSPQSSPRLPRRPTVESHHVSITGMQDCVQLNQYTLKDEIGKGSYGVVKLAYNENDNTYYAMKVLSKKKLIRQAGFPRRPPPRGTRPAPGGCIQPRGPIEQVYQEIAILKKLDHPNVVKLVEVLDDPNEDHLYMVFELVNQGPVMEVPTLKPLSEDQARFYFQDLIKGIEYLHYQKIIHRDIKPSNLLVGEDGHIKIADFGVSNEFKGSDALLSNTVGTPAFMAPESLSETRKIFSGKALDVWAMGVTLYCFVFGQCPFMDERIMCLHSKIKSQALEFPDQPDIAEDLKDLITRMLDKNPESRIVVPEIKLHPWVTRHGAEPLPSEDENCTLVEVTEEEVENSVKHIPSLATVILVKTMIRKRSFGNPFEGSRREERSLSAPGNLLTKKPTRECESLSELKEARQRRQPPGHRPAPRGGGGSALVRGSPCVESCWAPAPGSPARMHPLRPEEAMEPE
Tyrosine-protein kinase ABL1 (Homo sapiens), sequence (P00519 whole entry): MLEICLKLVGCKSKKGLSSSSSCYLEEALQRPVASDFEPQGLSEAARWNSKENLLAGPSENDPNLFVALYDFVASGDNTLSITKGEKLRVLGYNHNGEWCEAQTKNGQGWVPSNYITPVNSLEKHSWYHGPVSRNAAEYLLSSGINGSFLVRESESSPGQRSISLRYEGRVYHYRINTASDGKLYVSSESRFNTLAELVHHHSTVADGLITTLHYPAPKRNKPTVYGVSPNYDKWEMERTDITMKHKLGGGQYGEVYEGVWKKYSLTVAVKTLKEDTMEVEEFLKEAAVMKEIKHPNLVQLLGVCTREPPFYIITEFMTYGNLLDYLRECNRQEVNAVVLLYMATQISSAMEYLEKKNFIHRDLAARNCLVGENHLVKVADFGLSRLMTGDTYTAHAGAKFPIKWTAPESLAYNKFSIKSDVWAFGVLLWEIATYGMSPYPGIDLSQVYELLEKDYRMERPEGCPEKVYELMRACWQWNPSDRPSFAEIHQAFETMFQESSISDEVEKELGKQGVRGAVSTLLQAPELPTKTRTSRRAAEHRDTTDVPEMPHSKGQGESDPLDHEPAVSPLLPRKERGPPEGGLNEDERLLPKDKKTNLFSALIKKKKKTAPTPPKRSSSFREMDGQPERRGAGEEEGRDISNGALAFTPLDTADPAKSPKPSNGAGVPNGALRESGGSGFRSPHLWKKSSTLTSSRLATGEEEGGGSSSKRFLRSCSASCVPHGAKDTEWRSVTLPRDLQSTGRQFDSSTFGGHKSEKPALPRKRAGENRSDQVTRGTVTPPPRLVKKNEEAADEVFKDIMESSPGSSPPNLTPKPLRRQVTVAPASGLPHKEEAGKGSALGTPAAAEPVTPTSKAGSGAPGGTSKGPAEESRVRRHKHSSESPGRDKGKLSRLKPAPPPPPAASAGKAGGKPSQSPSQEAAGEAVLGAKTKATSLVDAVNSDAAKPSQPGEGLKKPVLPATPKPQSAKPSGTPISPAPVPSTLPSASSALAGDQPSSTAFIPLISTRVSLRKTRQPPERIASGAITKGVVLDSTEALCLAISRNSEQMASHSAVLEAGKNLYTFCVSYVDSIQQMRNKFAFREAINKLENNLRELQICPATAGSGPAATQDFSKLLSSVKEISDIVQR

Turning to `CN(C1CC1)S(=O)(=O)c1ccc(-c2cnc(N)c(-c3ccc4c(c3)CCNC4=O)c2)c(F)c1`, the inhibition in assay [1] is 0%; in [2] it was 50%; in [3], 0%; in assay [4], 0%; in assay [5], 50%; in assay [7], 0%. The outcome in [6] was Active.
Turning to `COc1cc(NS(=O)(=O)C2CC2)ccc1-c1cnc(N)c(-c2ccc3c(c2)CCNC3=O)c1`, the inhibition in [1], in assay [2], in assay [3], in [8], in [7] and in assay [9] was 0% throughout. The molecule further had an inhibition in [10] of 0%.
With `Nc1ncc(-c2ccc(NS(=O)(=O)C3CC3)cc2F)cc1-c1ccc2c(c1)CCNC2=O`, the inhibition is 0% in assay [1]; 0% in assay [3]; 0% in assay [8]; 0% in assay [7]; more than 90% in [10].
Consider `Nc1ncc(-c2ccc(NS(=O)(=O)C3CC3)cc2OC2CCCCC2)cc1-c1ccc2c(c1)CCNC2=O`, for which the inhibition is 0% in [1]; 0% in assay [3]; 0% in assay [8]; 50% in assay [5]; 0% in [9]; more than 90% in assay [10].
On to `Nc1ncc(-c2cccc3ncsc23)cc1-c1ccc2c(c1)CCNC2=O`, for which the inhibition in [1] was 50%; in [2], 50%; in [3], 50%; in assay [4], 0%; in assay [5], less than 90%; in assay [7], 0%. Moreover, the inhibition in assay [9] was 0%. Further, the outcome in [6] was Active.
Consider `Nc1ncc(-c2cccc([N+](=O)[O-])c2F)cc1-c1ccc2c(c1)CCNC2=O`, for which the inhibition in assay [4] and in assay [7] was 0% throughout. Also, the outcome in assay [6] was Active.
